The values that follow come from US10246453B2, “Benzenesulfonamide compounds and their use as therapeutic agents” (Xenon Pharmaceuticals Inc., priority 2016, dated 2019).

For one series, the target named is NaV1.6 (Homo sapiens (Human), UniProt Q9UQD0). Put plainly: Sodium Influx Assay (Flux), NaV1.6. To be noted: read-out: Flux NaV1.6 IC50; Trex HEK293 cells, ANG2 dye; arithmetic mean.
The next series has as its target NaV1.1 (Homo sapiens (Human), UniProt P35498). The experiment in a line: Sodium Influx Assay (Flux), NaV1.1. The format is cell-based. To be noted: Trex HEK293 cells, ANG2 dye; arithmetic mean.
The target in another series is NaV1.5 (Homo sapiens (Human), UniProt Q14524). The experiment in a line: Sodium Influx Assay (Flux), NaV1.5. To be noted: read-out: Flux NaV1.5 IC50; Trex HEK293 cells, ANG2 dye; arithmetic mean.

Where a name gives a salt, the structure may show the parent alone.

Sequence of NaV1.5 (Q14524 other isoform, or with tags, fused parts or gaps): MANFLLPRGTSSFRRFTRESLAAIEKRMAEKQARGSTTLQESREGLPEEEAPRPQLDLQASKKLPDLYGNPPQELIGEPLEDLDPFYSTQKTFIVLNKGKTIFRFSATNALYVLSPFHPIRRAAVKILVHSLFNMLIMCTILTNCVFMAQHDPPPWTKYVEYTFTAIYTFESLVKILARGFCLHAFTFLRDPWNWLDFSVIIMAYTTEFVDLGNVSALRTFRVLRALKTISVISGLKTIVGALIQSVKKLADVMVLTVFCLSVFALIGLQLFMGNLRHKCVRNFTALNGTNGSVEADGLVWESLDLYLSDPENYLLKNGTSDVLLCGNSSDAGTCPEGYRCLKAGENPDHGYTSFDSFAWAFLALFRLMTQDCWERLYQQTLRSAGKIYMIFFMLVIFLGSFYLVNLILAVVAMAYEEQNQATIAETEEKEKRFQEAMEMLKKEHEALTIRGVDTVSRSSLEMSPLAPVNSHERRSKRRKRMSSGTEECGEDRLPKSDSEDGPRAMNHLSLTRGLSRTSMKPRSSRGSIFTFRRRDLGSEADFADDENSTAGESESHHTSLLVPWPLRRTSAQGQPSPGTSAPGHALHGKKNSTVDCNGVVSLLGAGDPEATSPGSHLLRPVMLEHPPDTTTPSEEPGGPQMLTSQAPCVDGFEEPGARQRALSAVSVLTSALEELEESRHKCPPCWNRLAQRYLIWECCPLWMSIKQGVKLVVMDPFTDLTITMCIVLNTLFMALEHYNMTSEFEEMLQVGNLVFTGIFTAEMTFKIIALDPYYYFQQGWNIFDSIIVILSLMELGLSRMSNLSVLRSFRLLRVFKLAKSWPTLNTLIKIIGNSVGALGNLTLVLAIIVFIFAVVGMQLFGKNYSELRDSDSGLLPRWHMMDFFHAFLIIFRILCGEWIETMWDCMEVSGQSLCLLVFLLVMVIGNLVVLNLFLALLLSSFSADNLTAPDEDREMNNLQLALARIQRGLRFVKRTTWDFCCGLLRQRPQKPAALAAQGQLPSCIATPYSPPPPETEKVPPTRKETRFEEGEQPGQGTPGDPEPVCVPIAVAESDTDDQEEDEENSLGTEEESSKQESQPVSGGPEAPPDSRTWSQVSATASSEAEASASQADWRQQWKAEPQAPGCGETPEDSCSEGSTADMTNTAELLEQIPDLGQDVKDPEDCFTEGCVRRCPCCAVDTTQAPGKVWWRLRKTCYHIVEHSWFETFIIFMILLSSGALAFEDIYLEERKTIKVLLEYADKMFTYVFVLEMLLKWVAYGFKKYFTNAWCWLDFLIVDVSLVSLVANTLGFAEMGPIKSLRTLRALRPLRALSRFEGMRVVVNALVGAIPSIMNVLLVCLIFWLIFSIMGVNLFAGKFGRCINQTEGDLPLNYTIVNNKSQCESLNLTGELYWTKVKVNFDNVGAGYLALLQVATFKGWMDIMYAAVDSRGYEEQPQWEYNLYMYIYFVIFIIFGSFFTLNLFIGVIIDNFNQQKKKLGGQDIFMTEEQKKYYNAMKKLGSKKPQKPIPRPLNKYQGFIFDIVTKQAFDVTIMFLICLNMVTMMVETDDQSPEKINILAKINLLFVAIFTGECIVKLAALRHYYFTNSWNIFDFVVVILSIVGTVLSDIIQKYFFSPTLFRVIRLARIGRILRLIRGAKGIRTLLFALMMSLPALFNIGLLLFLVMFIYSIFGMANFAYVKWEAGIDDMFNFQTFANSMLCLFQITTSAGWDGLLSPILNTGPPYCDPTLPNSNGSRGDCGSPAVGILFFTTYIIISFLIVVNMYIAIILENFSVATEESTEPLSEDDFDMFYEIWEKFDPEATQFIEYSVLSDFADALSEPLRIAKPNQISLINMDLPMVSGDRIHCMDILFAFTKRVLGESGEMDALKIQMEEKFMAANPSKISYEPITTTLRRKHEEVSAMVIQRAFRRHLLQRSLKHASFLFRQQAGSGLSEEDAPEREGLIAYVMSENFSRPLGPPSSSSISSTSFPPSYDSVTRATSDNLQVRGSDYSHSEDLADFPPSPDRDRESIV

As usually defined, the IC50 is the concentration that gives 50% inhibition. Consider `CC(C)(c1ccccc1)N1CCC(Oc2cc(F)c(S(=O)(=O)Nc3nccs3)cc2Cl)CC1` [Example 60, 5-chloro-2-fluoro-4-((1-(2-phenylpropan-2-yl)piperidin-4-yl)oxy)-N-(thiazol-2-yl)benzenesulfonamide 2,2,2-trifluoroacetate], for which the results for the 50% inhibitory concentration (IC50) at NaV1.6, against NaV1.1 and at NaV1.5 were 0.452 µM, 13.3 µM and 15.9 µM, respectively.

Turning to `O=S(=O)(Nc1nccs1)c1ccc(OC2CCN(Cc3ccncc3)CC2)c(Cl)c1` [Example 63, 3-chloro-4-((1-(pyridin-4-ylmethyl)piperidin-4-yl)oxy)-N-(thiazol-2-yl)benzenesulfonamide], the IC50 on NaV1.6 was 27.7 µM; at NaV1.1, above 30 µM; at NaV1.5, above 30 µM.

Regarding `O=S(=O)(Nc1nccs1)c1ccc(OC2CCN(Cc3cccnc3)CC2)c(Cl)c1` [Example 64, 3-chloro-4-((1-(pyridin-3-ylmethyl)piperidin-4-yl)oxy)-N-(thiazol-2-yl)benzenesulfonamide], the IC50 at NaV1.6 was 5.63 µM; on NaV1.1 it was above 30 µM; on NaV1.5 it was above 30 µM.

For the molecule `O=S(=O)(Nc1nccs1)c1ccc(N[C@@H]2CCN(Cc3cccc(Cl)c3)C2)c(Cl)c1` [Example 69, (R)-3-chloro-4-((1-(3-chlorobenzyl)pyrrolidin-3-yl)amino)-N-(thiazol-2-yl)benzenesulfonamide], the figures for the IC50 on NaV1.6, against NaV1.1 and on NaV1.5 were 0.697 µM, 1.76 µM and 6.15 µM, respectively.

For the molecule `Cc1cccc(CN2CC[C@@H](Nc3ccc(S(=O)(=O)Nc4nccs4)cc3Cl)C2)c1` [Example 70, (R)-3-chloro-4-((1-(3-methylbenzyl)pyrrolidin-3-yl)amino)-N-(thiazol-2-yl)benzenesulfonamide], the half-inhibitory concentration (IC50) at NaV1.6 came to 0.664 µM; against NaV1.1 it was 3.18 µM; at NaV1.5 it was 4.2 µM.

Turning to `O=S(=O)(Nc1nccs1)c1ccc(OC2CN(Cc3ccccc3)C2)c(Cl)c1` [Example 76, 4-((1-benzylazetidin-3-yl)oxy)-3-chloro-N-(thiazol-2-yl)benzenesulfonamide], the IC50 on NaV1.6 was determined as 4.7 µM; on NaV1.1 it was 11.4 µM; on NaV1.5 it was 16.8 µM.

`O=S(=O)(Nc1cccc(F)n1)c1cc(Cl)c(OC2CCN(Cc3ccccc3)CC2)cc1F` [Example 78, 4-((1-benzylpiperidin-4-yl)oxy)-5-chloro-2-fluoro-N-(6-fluoropyridin-2-yl)benzenesulfonamide 2,2,2-trifluoroacetate]: the IC50 was 6.6 µM on NaV1.6, 8.17 µM against NaV1.1 and 2.86 µM at NaV1.5.

With `O=S(=O)(Nc1nccs1)c1ccc(OC2CCN(Cc3cccc(F)c3)CC2)c(Cl)c1` [Example 81, 3-chloro-4-(1-(3-fluorobenzyl)piperidin-4-yloxy)-N-(thiazol-2-yl)benzenesulfonamide], the values for the half-inhibitory concentration (IC50) on NaV1.6, against NaV1.1 and at NaV1.5 were 0.572 µM, 7.48 µM and 7.22 µM, respectively.

In the case of `COc1cccc(CN2CCC(Oc3ccc(S(=O)(=O)Nc4nccs4)cc3Cl)CC2)c1` [Example 84, 3-chloro-4-(1-(3-methoxybenzyl)piperidin-4-yloxy)-N-(thiazol-2-yl)benzenesulfonamide], the half-inhibitory concentration (IC50) is 0.525 µM on NaV1.6, 6 µM on NaV1.1 and 3.54 µM on NaV1.5.

As to `O=S(=O)(Nc1nccs1)c1ccc(OC2CCN(Cc3cccc(Cl)c3)CC2)c(Cl)c1` [Example 85, 3-chloro-4-(1-(3-chlorobenzyl)piperidin-4-yloxy)-N-(thiazol-2-yl)benzenesulfonamide], the IC50 at NaV1.6 was 0.353 µM; against NaV1.1, 8.7 µM; at NaV1.5, 5.71 µM.

Turning to `Cc1cccc(CN2CC[C@H](Nc3cc(F)c(S(=O)(=O)Nc4nccs4)cc3Cl)C2)c1` [Example 86, (S)-5-chloro-2-fluoro-4-(1-(3-methylbenzyl)pyrrolidin-3-ylamino)-N-(thiazol-2-yl)benzenesulfonamide], the IC50 at NaV1.6 amounted to 0.588 µM; against NaV1.1, 5.37 µM; at NaV1.5 it was 12.5 µM.

On to `O=S(=O)(Nc1nccs1)c1ccc(OC2CCN(Cc3ccccc3F)CC2)c(Cl)c1` [Example 90, 3-chloro-4-(1-(2-fluorobenzyl)piperidin-4-yloxy)-N-(thiazol-2-yl)benzenesulfonamide], for which the IC50 on NaV1.6 was determined as 0.464 µM; against NaV1.1, 12.4 µM; on NaV1.5, 8.16 µM.

For the molecule `Cc1ccccc1CN1CCC(Oc2ccc(S(=O)(=O)Nc3nccs3)cc2Cl)CC1` [Example 91, 3-chloro-4-(1-(2-methylbenzyl)piperidin-4-yloxy)-N-(thiazol-2-yl)benzenesulfonamide], the IC50 on NaV1.6 is 1.2 µM; at NaV1.1 it was 7.2 µM; on NaV1.5, 6.94 µM.

`Cc1ccc(CN2CCC(Oc3ccc(S(=O)(=O)Nc4nccs4)cc3Cl)CC2)cc1C` [Example 93, 3-chloro-4-(1-(3,4-dimethylbenzyl)piperidin-4-yloxy)-N-(thiazol-2-yl)benzenesulfonamide]: the IC50 worked out at 3.62 µM at NaV1.6, 12.6 µM against NaV1.1 and 12.5 µM on NaV1.5.

As to `Cc1cc(C)cc(CN2CCC(Oc3ccc(S(=O)(=O)Nc4nccs4)cc3Cl)CC2)c1` [Example 94, 3-chloro-4-(1-(3,5-dimethylbenzyl)piperidin-4-yloxy)-N-(thiazol-2-yl)benzenesulfonamide], the concentration for half-maximal inhibition (IC50) came out at 3.44 µM at NaV1.6, 11.4 µM at NaV1.1 and 7.62 µM at NaV1.5.

On to `O=S(=O)(Nc1ncns1)c1ccc(O[C@@H]2CCN(Cc3ccccc3)C2)c(Cl)c1` [Example 96, (R)-4-(1-benzylpyrrolidin-3-yloxy)-3-chloro-N-(1,2,4-thiadiazol-5-yl)benzenesulfonamide 2,2,2-trifluoroacetate], for which the IC50 at NaV1.6 is 11.9 µM; against NaV1.1 it was 25.7 µM; at NaV1.5, above 30 µM.

For the molecule `Cc1cc(C)cc(CN2CC[C@@H](Oc3ccc(S(=O)(=O)Nc4ncns4)cc3Cl)C2)c1` [Example 98, (R)-3-chloro-4-(1-(3,5-dimethylbenzyl)pyrrolidin-3-yloxy)-N-(1,2,4-thiadiazol-5-yl)benzenesulfonamide 2,2,2-trifluoroacetate], the IC50 was 7.53 µM at NaV1.6, 21.9 µM against NaV1.1 and above 30 µM at NaV1.5.

In the case of `Cc1cc(S(=O)(=O)Nc2cscn2)c(F)cc1N(C)[C@H]1CCN(Cc2csc(C(C)C)n2)C1` [Example 107, (S)-2-fluoro-4-((1-((2-isopropylthiazol-4-yl)methyl)pyrrolidin-3-yl)(methyl)amino)-5-methyl-N-(thiazol-4-yl)benzenesulfonamide 2,2,2-trifluoroacetate], the half-maximal inhibitory concentration (IC50) on NaV1.6 stood at 0.049 µM; against NaV1.1, 4.1 µM; on NaV1.5, 9.6 µM.

Regarding `Cc1cc(S(=O)(=O)Nc2cscn2)c(F)cc1N(C)[C@H]1CCN(Cc2ccnn2CC(F)(F)F)C1` [Example 108, (S)-2-fluoro-5-methyl-4-(methyl(1-((1-(2,2,2-trifluoroethyl)-1H-pyrazol-5-yl)methyl)pyrrolidin-3-yl)amino)-N-(thiazol-4-yl)benzenesulfonamide], the values for the IC50 on NaV1.6, against NaV1.1 and at NaV1.5 were 5.49 µM, 12.5 µM and above 30 µM, respectively.

As for `Cc1cc(S(=O)(=O)Nc2cscn2)c(F)cc1N(C)[C@H]1CCN([C@H]2C[C@@H](c3ccccc3)C2)C1` [Example 109, 2-fluoro-5-methyl-4-(methyl((S)-1-((1s,3R)-3-phenylcyclobutyl)-pyrrolidin-3-yl)amino)-N-(thiazol-4-yl)benzenesulfonamide formate], the half-maximal inhibitory concentration (IC50) on NaV1.6 was determined as 1.11 µM; on NaV1.1 it was 1.99 µM; at NaV1.5, 2.8 µM.

Regarding `Cc1nc(CN2CC[C@H](N(C)c3cc(F)c(S(=O)(=O)Nc4cscn4)cc3C)C2)cs1` [Example 110, (S)-2-fluoro-5-methyl-4-(methyl(1-((2-methylthiazol-4-yl)methyl)pyrrolidin-3-yl)amino)-N-(thiazol-4-yl)benzenesulfonamide formate], the IC50 on NaV1.6 was 0.262 µM; against NaV1.1, above 30 µM; at NaV1.5 it was above 30 µM.

`Cc1cc(S(=O)(=O)Nc2cscn2)c(F)cc1N(C)[C@H]1CCN(Cc2ccn(C)n2)C1` [Example 111, (S)-2-fluoro-5-methyl-4-(methyl(1-((1-methyl-1H-pyrazol-3-yl)methyl)pyrrolidin-3-yl)amino)-N-(thiazol-4-yl)benzenesulfonamide formate]: the IC50 is 0.763 µM on NaV1.6, above 30 µM at NaV1.1 and above 30 µM at NaV1.5.

On to `Cc1cc(S(=O)(=O)Nc2cscn2)c(F)cc1N(C)[C@H]1CCN(Cc2ccccc2C(F)F)C1` [Example 112, (S)-4-((1-(2-(difluoromethyl)benzyl)-pyrrolidin-3-yl)(methyl)amino)-2-fluoro-5-methyl-N-(thiazol-4-yl)benzenesulfonamide], for which the results for the IC50 at NaV1.6, on NaV1.1 and on NaV1.5 were 0.773 µM, 4.6 µM and 8.19 µM, respectively.

For `Cc1cc(S(=O)(=O)Nc2cscn2)c(F)cc1N(C)[C@H]1CCN(Cc2cccc(O)c2)C1` [Example 114, (S)-2-fluoro-4-((1-(3-hydroxybenzyl)-pyrrolidin-3-yl)(methyl)amino)-5-methyl-N-(thiazol-4-yl)benzenesulfonamide], the IC50 was 2.25 µM on NaV1.6, 25.9 µM at NaV1.1 and above 30 µM at NaV1.5.

In the case of `Cc1cc(S(=O)(=O)Nc2cscn2)c(F)cc1N(C)[C@H]1CCN(CCc2ccccc2)C1` [Example 115, (S)-2-fluoro-5-methyl-4-(methyl(1-phenethylpyrrolidin-3-yl)amino)-N-(thiazol-4-yl)benzenesulfonamide], the IC50 at NaV1.6 worked out at 1.6 µM; against NaV1.1, 6.75 µM; at NaV1.5, 19.3 µM.
